Data reported in ChEMBL document CHEMBL3988442, “University of Dundee, Small-Polar-MMV Screening Library” (2021).
pIC50: −log10 of the molar value. Several values for one entry are separate records, joined by “and”; a condition that tells them apart may be missing. Equal entries are not always repeated.

Experiments:
Assay type in all cases: functional
Histidine--tRNA ligase = biological target: T1, Histidine--tRNA ligase (Leishmania infantum, UniProt A4I591); experiment: Leishmania infantum Histidine tRNA synthetase (LdHisRS)
T1 sequence (A4I591 whole entry): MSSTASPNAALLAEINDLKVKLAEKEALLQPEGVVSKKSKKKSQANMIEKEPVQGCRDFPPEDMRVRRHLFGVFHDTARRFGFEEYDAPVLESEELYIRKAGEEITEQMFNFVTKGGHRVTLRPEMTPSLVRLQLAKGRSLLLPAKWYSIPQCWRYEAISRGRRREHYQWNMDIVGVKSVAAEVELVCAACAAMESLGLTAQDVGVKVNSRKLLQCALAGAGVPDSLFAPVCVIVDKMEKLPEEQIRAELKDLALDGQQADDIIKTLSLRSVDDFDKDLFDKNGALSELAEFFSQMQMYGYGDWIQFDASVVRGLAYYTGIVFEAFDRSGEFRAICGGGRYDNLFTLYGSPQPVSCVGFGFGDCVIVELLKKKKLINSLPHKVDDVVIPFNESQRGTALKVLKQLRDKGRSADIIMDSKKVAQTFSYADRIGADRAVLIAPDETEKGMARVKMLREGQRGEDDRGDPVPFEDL

Tryptophan--tRNA ligase = Tryptophan--tRNA ligase (Mycobacterium tuberculosis (strain ATCC 25618 / H37Rv), UniProt P9WFT3); experiment: Biochemical assay for Mt-TrpRS
Schistosoma mansoni = experiment: High throughput screening of compounds against Schistosoma mansoni motility; design: dose or concentration left out as unconfirmed
ClpP1P2 = ClpP1P2 (Mycobacterium tuberculosis (strain ATCC 25618 / H37Rv), UniProt P9WPC3+P9WPC5); experiment: in vitro assay to detect presence of AMC directly proportional to the activity of ClpP1P2. GHDDI collaboration.

| SMILES | pIC50 (Histidine--tRNA ligase) | also measured |
| --- | --- | --- |
| CC(C)c1ncc2c(n1)CN(Cc1nc(Cc3ccccc3)no1)CC2 | < 4.00 | – |
| COCCN1CCCn2cnc(CNC3CCCC3)c2C1 | 5.04 and 4.89 | – |
| CNCCc1nc2cc(F)ccc2[nH]1 | 4.32 and 4.46 | – |
| Cc1ccc(-c2noc(CN3CCc4nn(C)c(=O)cc4C3)n2)cc1 | 4.53 and 4.52 | – |
| CC(c1ccco1)n1cc(-c2cc(CN3CCCC3)cs2)nn1 (stereo not given) | 4.26 and 4.09 | – |
| Cc1ccc(C(=O)N2CCN(C(=O)NC(C)Cn3ccnc3)CC2)o1 (stereo not given) | < 4.00 | – |
| Cn1cc(NC(=O)Nc2ccccn2)cc(Cl)c1=O | 4.87 and 4.85 | – |
| c1cncc(NCCNC2CCSC2)c1 (stereo not given) | 4.50 and 4.64 | – |
| Cc1noc(C)c1C(=O)N1CCC(Nc2cccnn2)CC1 | < 4.00 | – |
| COc1cccc(CN(C)C(=O)CN2CC(n3nc(C)cc3C)C2)c1 | 4.43 and 4.36 | – |
| O=C(c1cncc(N2CCC3(CCCNC3)C2)n1)N1CCCC1 (stereo not given) | < 4.00 | – |
| O=c1c2ccccc2nc2n1C(CSc1ccc(Br)cc1)CN2 (stereo not given) | < 4.00 | – |
| CCOc1ccc(C(=O)N(CCOC)Cc2c(C)nn(CC)c2C)o1 | < 4.00 | – |
| c1cc(-c2ccc3c(c2)C2(CC3)CCN(c3nncs3)CC2)ccn1 | 4.53 and 4.57 | – |
| Cc1noc(C)c1CNc1ccc2nc(C3CC3)sc2c1 | < 4.00 | – |
| CCCc1nc(CN2CCOC(CNc3cccnn3)C2)cs1 (stereo not given) | 4.35 and 4.48 | – |
| Cc1ccc(N2CCc3sc(C(=O)N4CCOCC4)cc32)nn1 | < 4.00 | – |
| Cc1cccc2c1nc(COCC(=O)O)n2-c1cnc(N)cn1 | < 4.00 | – |
| COCc1ncc(-c2nccn2CCS(C)(=O)=O)cn1 | < 4.00 | – |
| N#Cc1cccc(SCCS(N)(=O)=O)c1 | – | pIC50 (Tryptophan--tRNA ligase): < 3.71; Percent Effect (Schistosoma mansoni): -35.02% |
| Cc1c(C(=O)N2CCC(O)(CN(C)C)C2)c2cc(O)ccc2n1C (stereo not given) | < 4.00 | – |
| CCN1CC[C@@H]2OC[C@H](C(=O)NCc3cccs3)C[C@@H]2C1 | – | pIC50 (Tryptophan--tRNA ligase): < 3.71; pIC50 (ClpP1P2): < 4.00 |
| c1cncc(NCCNC2CSCCSC2)c1 | 4.54 and 4.71 | – |
| Cc1nccc(-c2cccc(NCC(=O)N3CCc4sccc4C3)c2)n1 | 4.13 and 4.17 | – |

| SMILES | pIC50 (Histidine--tRNA ligase) | also measured |
| --- | --- | --- |
| O=C(CCn1ccc2cc(Br)ccc21)NCc1ccc(C(=O)O)cc1 | < 4.00 and 4.17 | – |
| O=C(c1ccc2[nH]ccc2c1)N1CCn2cnc(COCC3CC3)c2C1 | 4.42 and 4.59 | – |
| COc1nccnc1-c1cc(NC2CCNCC2)nc2[nH]ccc12 | 4.47 and 4.53 | – |
| CC(O)CNC(=O)NCc1ccc(N2CCNC(=O)C2)cc1 (stereo not given) | < 4.00 and 4.23 | – |
| CC(C)c1nnc(N2C[C@@H]3CC[C@H](C2)N(Cc2ccccc2)C3)s1 | 4.45 and 4.46 | – |
| CC(=O)N(Cc1noc(C)n1)C1CCN(Cc2cccc(C#N)c2)C1 (stereo not given) | < 4.00 | – |
| CC(=O)N1CCO[C@@H]2CN(S(=O)(=O)c3ccc(C)cc3)CC[C@@H]2C1 | < 4.00 | – |
| O=C(CN1CCc2cncnc2C1)NCCOc1ccccc1 | 4.13 and 4.22 | – |
| CN(Cc1cnn(C)c1)C(=O)NC1CCS(=O)(=O)C1 (stereo not given) | – | pIC50 (Tryptophan--tRNA ligase): < 3.71; Percent Effect (Schistosoma mansoni): -4.908% |
| COc1ccc(C2SC(C)=Nc3c2c(=O)[nH]n3C2CCCC2)cc1O (stereo not given) | < 4.00 | – |
| O=C1CC(c2ccc(C(=O)O)cc2)c2ncn(-c3ccc(F)cc3)c2N1 (stereo not given) | 4.83 and 4.66 | – |
| O=C1CC(c2ccc(C(=O)O)cc2)c2ncn(-c3ccccc3)c2N1 (stereo not given) | 4.76 and 4.70 | – |
| COCCN1CCCc2sc(C(=O)NCC3CCCO3)nc21 (stereo not given) | 4.65 and 4.62 | – |
| CC(C)NC(=O)C1Cc2nc(-c3ccsc3)sc2N1CC1CC1 (stereo not given) | 4.47 and 4.43 | – |
| CC1=C(C#N)C(=O)NC(=O)/C1=C\c1c(C)nn(-c2ccc(C)cc2)c1O | 4.23 and 4.32 | – |
| COc1ccc(-c2nc(CN3CCc4c(ncn4C)C3)cs2)cc1 | 4.16 and 4.06 | – |
| O=C(Cc1csc(-c2ccco2)n1)N1CCN(c2cnccn2)CC1 | 4.27 and 4.46 | – |
| Cc1c(CN2CCOCC2)c(O)n(CCc2ccccc2)c(=O)c1C#N | 4.63 and 4.70 | – |
| CCOc1ccc2nc(CN3CCC(CN)C3)ccc2c1 (stereo not given) | 4.48 and 4.33 | – |
| COCCN1CCC(C)(c2cc(O)[nH]n2)CC1 | 4.15 and 4.18 | – |
| COc1cccc2c1OCCCN(c1nc(N)nc3c1CCNC3)C2 | 4.55 and 4.49 | – |
| CCN1C(=O)C(C#N)=C(C)/C(=C/C2=Cc3ccccc3OC2)C1=O | 5.78 and 5.75 and 5.87 | – |
| O=C(CCNCc1cccc(O)c1)N1CCc2sccc2C1 | 4.75 and 4.64 | – |
